Source: patent US20170050957A1, “4-AMINO-6-(HETEROCYCLIC)PICOLINATES AND 6-AMINO-2-(HETEROCYCLIC)PYRIMIDINE-4-CARBOXYLATES AND THEIR USE AS HERBICIDES” (Dow AgroSciences LLC, priority 2013, published 2017)
Like-named read-outs stand apart in the source and are kept apart here.

What was measured:
[1] = test system: Key Broadleaf Weed and Crop Species; test: Post-emergent Test II herbicidal activity (Table 15); assay type: in vivo; settings: post-emergence, 336 h, 14 d; for pest or weed control at 35 g/ha: 35 g ai/ha; for pest or weed control at 70 g/ha: 70 g ai/ha; for pest or weed control at 140 g/ha: 140 g ai/ha; for pest or weed control at 280 g/ha: 280 g ai/ha
Method in brief: (§1)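 Greenhouse-grown seedlings at first/second true leaf receive a track spray at 187 L/ha, using a highest rate plus two-fold serial dilutions down to 1/16×. Watering is by subirrigation to avoid wash-off. Percent injury (0-100) is judged by eye at 14 d against untreated plants.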

[2] = test system: Key Grass and Sedge Weeds as well as Grass Crops; test: Post-emergent Test II herbicidal activity (Table 16); assay type: in vivo; settings: post-emergence, 336 h, 14 d; for pest or weed control at 35 g/ha: 35 g ai/ha; for pest or weed control at 70 g/ha: 70 g ai/ha; for pest or weed control at 140 g/ha: 140 g ai/ha; for pest or weed control at 280 g/ha: 280 g ai/ha
Method in brief: as §1

[3] = Abutilon theophrasti, velvetleaf (Abutilon theophrasti), read-out: Visual Growth Reduction (%) 14 Days After Application, ABUTH
[4] = Amaranthus retroflexus, redroot pigweed (Amaranthus retroflexus), read-out: Visual Growth Reduction (%) 14 Days After Application, AMARE
[5] = Brassica napus, oilseed rape, canola (Brassica napus), read-out: Visual Growth Reduction (%) 14 Days After Application, BRSNN
[6] = Chenopodium album, lambsquarters (Chenopodium album), read-out: Visual Growth Reduction (%) 14 Days After Application, CHEAL
[7] = Euphorbia heterophylla, wild poinsettia (Euphorbia heterophylla), read-out: Visual Growth Reduction (%) 14 Days After Application, EPHHL
[8] = Helianthus annuus, sunflower (Helianthus annuus), read-out: Visual Growth Reduction (%) 14 Days After Application, HELAN
[9] = Cyperus esculentus, yellow nutsedge (Cyperus esculentus), read-out: Visual Growth Reduction (%) 14 Days After Application, CYPES
[10] = Echinochloa crus-galli, barnyardgrass (Echinochloa crus-galli), read-out: Visual Growth Reduction (%) 14 Days After Application, ECHCG
[11] = Oryza sativa, rice (Oryza sativa), read-out: Visual Growth Reduction (%) 14 Days After Application, ORYSA
[12] = Setaria faberi, giant foxtail (Setaria faberi), read-out: Visual Growth Reduction (%) 14 Days After Application, SETFA
[13] = Triticum aestivum, wheat, spring (Triticum aestivum), read-out: Visual Growth Reduction (%) 14 Days After Application, TRZAS
[14] = Zea mays, maize, corn (Zea mays), read-out: Visual Growth Reduction (%) 14 Days After Application, ZEAMX

Structure (SMILES): Nc1c(F)c(-c2ccc3occc3c2)nc(C(=O)O)c1Cl [Compound 2.02]
- pest or weed control at 35 g/ha [1, 3]: 45 to 59%
- pest or weed control at 70 g/ha [1, 3]: 85 to 94%
- pest or weed control at 140 g/ha [1, 3]: 85 to 94%
- pest or weed control at 35 g/ha [1, 4]: 75 to 84%
- pest or weed control at 70 g/ha [1, 4]: 95 to 100%
- pest or weed control at 140 g/ha [1, 4]: 95 to 100%
- pest or weed control at 35 g/ha [1, 5]: 0 to 29%
- pest or weed control at 70 g/ha [1, 5]: 30 to 44%
- pest or weed control at 140 g/ha [1, 5]: 30 to 44%
- pest or weed control at 35 g/ha [1, 6]: 95 to 100%
- pest or weed control at 70 g/ha [1, 6]: 95 to 100%
- pest or weed control at 140 g/ha [1, 6]: 95 to 100%
- pest or weed control at 35 g/ha [1, 7]: 75 to 84%
- pest or weed control at 70 g/ha [1, 7]: 95 to 100%
- pest or weed control at 140 g/ha [1, 7]: 95 to 100%
- pest or weed control at 35 g/ha [1, 8]: 75 to 84%
- pest or weed control at 70 g/ha [1, 8]: 85 to 94%
- pest or weed control at 140 g/ha [1, 8]: 95 to 100%
- melting point: 165 to 167 °C
- pest or weed control at 35 g/ha [2, 9]: 0 to 29%
- pest or weed control at 70 g/ha [2, 9]: 0 to 29%
- pest or weed control at 140 g/ha [2, 9]: 0 to 29%
- pest or weed control at 35 g/ha [2, 10]: 85 to 94%
- pest or weed control at 70 g/ha [2, 10]: 85 to 94%
- pest or weed control at 140 g/ha [2, 10]: 95 to 100%
- pest or weed control at 35 g/ha [2, 11]: 0 to 29%
- pest or weed control at 70 g/ha [2, 11]: 0 to 29%
- pest or weed control at 140 g/ha [2, 11]: 0 to 29%
- pest or weed control at 35 g/ha [2, 12]: 60 to 74%
- pest or weed control at 70 g/ha [2, 12]: 60 to 74%
- pest or weed control at 140 g/ha [2, 12]: 75 to 84%
- pest or weed control at 35 g/ha [2, 13]: 0 to 29%
- pest or weed control at 70 g/ha [2, 13]: 30 to 44%
- pest or weed control at 140 g/ha [2, 13]: 45 to 59%
- pest or weed control at 35 g/ha [2, 14]: 95 to 100%
- pest or weed control at 70 g/ha [2, 14]: 95 to 100%
- pest or weed control at 140 g/ha [2, 14]: 95 to 100%

Structure (SMILES): COC(=O)c1nc(-c2ccc3occc3c2)cc(N)c1Cl [Compound 2.03]
- pest or weed control at 35 g/ha [1, 3]: 95 to 100%
- pest or weed control at 70 g/ha [1, 3]: 95 to 100%
- pest or weed control at 140 g/ha [1, 3]: 95 to 100%
- pest or weed control at 280 g/ha [1, 3]: 95 to 100%
- pest or weed control at 35 g/ha [1, 4]: 60 to 74%
- pest or weed control at 70 g/ha [1, 4]: 85 to 94%
- pest or weed control at 140 g/ha [1, 4]: 85 to 94%
- pest or weed control at 280 g/ha [1, 4]: 95 to 100%
- pest or weed control at 35 g/ha [1, 5]: 0 to 29%
- pest or weed control at 70 g/ha [1, 5]: 0 to 29%
- pest or weed control at 140 g/ha [1, 5]: 0 to 29%
- pest or weed control at 280 g/ha [1, 5]: 30 to 44%
- pest or weed control at 35 g/ha [1, 6]: 85 to 94%
- pest or weed control at 70 g/ha [1, 6]: 95 to 100%
- pest or weed control at 140 g/ha [1, 6]: 95 to 100%
- pest or weed control at 280 g/ha [1, 6]: 95 to 100%
- pest or weed control at 35 g/ha [1, 7]: 45 to 59%
- pest or weed control at 70 g/ha [1, 7]: 75 to 84%
- pest or weed control at 140 g/ha [1, 7]: 75 to 84%
- pest or weed control at 280 g/ha [1, 7]: 85 to 94%
- pest or weed control at 35 g/ha [1, 8]: 0 to 29%
- pest or weed control at 70 g/ha [1, 8]: 60 to 74%
- pest or weed control at 140 g/ha [1, 8]: 75 to 84%
- pest or weed control at 280 g/ha [1, 8]: 85 to 94%
- melting point: 84 to 87 °C
- pest or weed control at 35 g/ha [2, 9]: 0 to 29%
- pest or weed control at 70 g/ha [2, 9]: 0 to 29%
- pest or weed control at 140 g/ha [2, 9]: 0 to 29%
- pest or weed control at 280 g/ha [2, 9]: 0 to 29%
- pest or weed control at 35 g/ha [2, 10]: 30 to 44%
- pest or weed control at 70 g/ha [2, 10]: 60 to 74%
- pest or weed control at 140 g/ha [2, 10]: 85 to 94%
- pest or weed control at 280 g/ha [2, 10]: 95 to 100%
- pest or weed control at 35 g/ha [2, 11]: 0 to 29%
- pest or weed control at 70 g/ha [2, 11]: 0 to 29%
- pest or weed control at 140 g/ha [2, 11]: 0 to 29%
- pest or weed control at 280 g/ha [2, 11]: 0 to 29%
- pest or weed control at 35 g/ha [2, 12]: 0 to 29%
- pest or weed control at 70 g/ha [2, 12]: 0 to 29%
- pest or weed control at 140 g/ha [2, 12]: 30 to 44%
- pest or weed control at 280 g/ha [2, 12]: 30 to 44%
- pest or weed control at 35 g/ha [2, 13]: 0 to 29%
- pest or weed control at 70 g/ha [2, 13]: 0 to 29%
- pest or weed control at 140 g/ha [2, 13]: 0 to 29%
- pest or weed control at 280 g/ha [2, 13]: 0 to 29%
- pest or weed control at 35 g/ha [2, 14]: 0 to 29%
- pest or weed control at 70 g/ha [2, 14]: 0 to 29%
- pest or weed control at 140 g/ha [2, 14]: 0 to 29%
- pest or weed control at 280 g/ha [2, 14]: 60 to 74%
